# Patent publication US8404856B2, “Non-nucleoside reverse transcriptase inhibitors” (Merck Sharp & Dohme Corp., priority 2007, dated 2013)
# Where a name gives a salt, the structure may show the parent alone. Read-outs that look alike come from different tables or passages of the source.
# Assays:
# [1] = tested on: HIV strain containing the Y181C mutation; assay: Spread assay: inhibition of acute HIV-1 infection of T-lymphoid cells (Y181C); type: cell-based; conditions: Human immunodeficiency virus 1, T-lymphoid, read-out: Spread (Y181C) CIC95 (10% FBS)
# Protocol: (§1) Assays for the inhibition of acute HIV-1 infection of T-lymphoid cells (alternatively referred to herein as the “spread assay”) were conducted in accordance with Vacca, J. P. et al., Proc. Natl. Acad. Sci. USA 1994, 91: 4096. The assays tested for inhibition of wild type HIV-1 and of HIV strains containing the Y181C or K103N mutation. […] Table C also reports the CIC95 values of certain of the title compounds of Examples 1-25 obtained in the assays employing the Y181C mutant strain and the K103N mutant strain.
# [2] = molecular target: T1, HIV reverse transcriptase with the Y181C mutation (Human immunodeficiency virus type 1 group M subtype B, UniProt P04585, Y768C); assay: ECL assay for inhibition of mutant HIV reverse transcriptase (Y181C); type: biochemical, HIV-1
# T1 construct: made in house
# Protocol: (§2) 100 μL reaction mixtures were initiated with a combination of primer-template substrate (10 nM final concentration) and dNTPs (0.6 μM dNTPs, 1.25 μM BrdUTP). The heterodimeric nucleic acid substrate was generated by annealing the DNA primer pD500 (described in Shaw-Reid et al., J. Biol. Chem., 278: 2777-2780; obtained from Integrated DNA Technologies) to t500, a 500 nucleotide RNA template created by in vitro transcription (see Shaw-Reid et al., J. Biol. Chem., 278: 2777-2780). After 1 hour incubation at 37° C., reactions were quenched by 10 μL of 1 N NaOH. Microtiter plates were incubated for an additional 30 minutes at room temperature and then neutralized with 10 μL of 1 N HCl. A mixture of detection buffer containing ruthenylated anti-BrdU antibody and streptavidin coated magnetic beads were added to the plate and incubated at room temperature for 1.5 hours prior to quantification via electrochemiluminescence instrument.
# (§3) Analogous assays were conducted substituting mutant HIV strains to determine the […] inhibition of compounds of the present invention against mutant HIV reverse transcriptase. In one strain the reverse transcriptase has the Y181C mutation and in the other strain the reverse transcriptase has the K103N mutation. The mutations were generated with the […] site-directed mutagenesis kit (Stratagene).
# T-lymphoid cells = type: cell-based
# Protocol: Cytotoxicity was determined by microscopic examination of the cells in each well in the spread assay, wherein a trained analyst observed each culture for any of the following morphological changes as compared to the control cultures: pH imbalance, cell abnormality, cytostatic, cytopathic, or crystallization (i.e., the compound is not soluble or forms crystals in the well). The toxicity value assigned to a given compound is the lowest concentration of the compound at which one of the above changes is observed.
# wild type HIV-1 = assay: Spread assay: inhibition of acute HIV-1 infection of T-lymphoid cells (WT); type: cell-based; conditions: Human immunodeficiency virus 1, T-lymphoid, read-out: Spread (WT) CIC95 (10% FBS)
# Protocol: as §1
# [3] = tested on: HIV strain containing the K103N mutation; assay: Spread assay: inhibition of acute HIV-1 infection of T-lymphoid cells (K103N); type: cell-based; conditions: Human immunodeficiency virus 1, T-lymphoid, read-out: Spread (K103N) CIC95 (10% FBS)
# Protocol: as §1
# [4] = molecular target: T2, HIV reverse transcriptase with the K103N mutation (Human immunodeficiency virus type 1 group M subtype B, UniProt P04585, K690N); assay: ECL assay for inhibition of mutant HIV reverse transcriptase (K103N); type: biochemical, HIV-1
# T2 construct: made in house
# Protocol: as §2, §3
# [5] = molecular target: HIV-1 RT enzyme (wild-type) (Human immunodeficiency virus type 1 group M subtype B, UniProt P04585); assay: ECL assay for inhibition of HIV reverse transcriptase (WT); type: biochemical
# Protocol: as §2
# [6] = Y181C mutant RT, read-out: ECL Assay (Y181C) IC50
# [7] = K103N mutant RT, read-out: ECL Assay (K103N) IC50
# [8] = wild-type HIV-1 RT, read-out: ECL Assay (WT) IC50
Compound,IC95 [1] [µM],"IC50 [2, 6] [nM]",Cytotoxicity: no cytotoxicity at concentrations up to (T-lymphoid cells) [nM],"IC95 (wild type HIV-1; wild type HIV-1, 10% FBS) [nM]",IC95 [3] [µM],"IC50 [4, 7] [nM]","IC50 [5, 8] [nM]",IC50 [2] [nM],IC95 (wild type HIV-1) [nM],IC50 [4] [nM],IC50 [5] [nM]
"N#Cc1cc(Cl)cc(Oc2c(F)c(NCc3n[nH]c4ncccc34)nc(F)c2Cl)c1 [Compound 10-4, 3-chloro-5-({3-chloro-2,5-difluoro-6-[(1H-pyrazolo[3,4-b]pyridin-3-ylmethyl)amino]pyridin-4-yl}oxy)benzonitrile]",0.046,0.6,> 833,28,0.062,3.2,0.5,–,–,–,–
"N#Cc1cc(Cl)cc(Oc2c(C(F)(F)F)ccn(Cc3n[nH]c4ncccc34)c2=O)c1 [Compound 13-2, 3-chloro-5-{[2-oxo-1-(1H-pyrazolo[3,4-b]pyridin-3-ylmethyl)-4-(trifluoromethyl)-1,2-dihydropyridin-3-yl]oxy}benzonitrile]",0.008,2,> 833,4,0.006,2.6,1.6,–,–,–,–
"NS(=O)(=O)c1ccc(NC(=O)Cn2ccc(C(F)(F)F)c(Oc3cc(Cl)cc(Br)c3)c2=O)c(Cl)c1 [Compound 16, N-[4-(aminosulfonyl)-2-chlorophenyl]-2-[3-(3-bromo-5-chlorophenoxy)-2-oxo-4-(trifluoromethyl)pyridin-1(2H)-yl]acetamide]",0.03,2.6,> 833,8,0.021,2.8,1.9,–,–,–,–
"N#Cc1cc(Cl)cc(Oc2c(C(F)(F)F)ccn(Cc3n[nH]c4nc(N)ccc34)c2=O)c1 [Compound 17-2, 3-{[3-(3-chloro-5-cyanophenoxy)-2-oxo-4-(trifluoromethyl)pyridin-1(2H)-yl]methyl}-1H-pyrazolo[3,4-b]pyridin-6-aminium trifluoroacetate]",0.042,–,> 833,–,0.011,–,–,2.4,6,3.1,1.9
"N#Cc1cc(C#N)cc(Oc2c(C(F)(F)F)ccn(Cc3n[nH]c4ncccc34)c2=O)c1 [Compound 18-4, 5-{[2-oxo-1-(1H-pyrazolo[3,4-b]pyridine-3-ylmethyl)-4-(trifluoromethyl)-1,2-dihydropyridin-3-yl]oxy}isophthalonitrile]",0.008,4.1,> 833,7,0.006,5.1,3.4,–,–,–,–
"O=c1c(Oc2cc(Cl)cc(Cl)c2)c(C(F)(F)F)ccn1Cc1n[nH]c2ncccc12 [Compound 19-4, 3-(3,5-dichlorophenoxy)-1-(1H-pyrazolo[3,4-b]pyridin-3-ylmethyl)-4-(trifluoromethyl)pyridin-2(1H)-one]",0.048,1.5,> 833,9,0.021,2.1,1.1,–,–,–,–
"Cl.Nc1ccc2c(Cn3ccc(C(F)(F)F)c(Oc4cc(Cl)cc(Cl)c4)c3=O)n[nH]c2n1 [Compound 20-3, 3-{[3-(3,5-dichlorophenoxy)-2-oxo-4-(trifluoromethyl)pyridin-1(2H)-yl]methyl}-1H-pyrazolo[3,4-b]pyridin-6-aminium chloride]",0.169,–,> 833,20,0.087,–,–,1.6,–,5.9,1.6
"N#Cc1cc(Cl)cc(Oc2c(Cl)ccn(Cc3n[nH]c4nc(N)ccc34)c2=O)c1.O=C(O)C(F)(F)F [Compound 22, 3-({1-[(6-amino-1H-pyrazolo[3,4-b]pyridin-3-yl)methyl]-4-chloro-2-oxo-1,2-dihydropyridin-3-yl}oxy)-5-chlorobenzonitrile trifluoroacetate]",0.063,–,> 833,2,0.007,–,–,1.8,–,2.1,1.3
"N#Cc1cc(Cl)cc(Oc2c(Cl)c(Cl)cn(Cc3n[nH]c4ncccc34)c2=O)c1 [Compound 23-2, 3-chloro-5-{[4,5-dichloro-2-oxo-1-(1H-pyrazolo[3,4-b]pyridin-3-ylmethyl)-1,2-dihydropyridin-3-yl]oxy}benzonitrile]",0.015,1.3,> 833,5,0.011,1.6,0.96,–,–,–,–
"N#Cc1cc(Cl)cc(Oc2cc(Cc3n[nH]c4ncccc34)[nH]c(=O)c2Cl)c1 [Compound 24-7, 3-Chloro-5-{[3-chloro-2-oxo-6-(1H-pyrazolo[3,4-b]pyridin-3-ylmethyl)-1,2-dihydropyridin-4-yl]oxy}benzonitrile]",0.0066,1,> 833,2.4,0.013,1.7,0.9,–,–,–,–
